The values below come from US7416741B2, “Copper lowering treatment of inflammatory and fibrotic diseases” (The Regents of the University of Michigan, priority 2002, dated 2008).

One data set deals with Con A mouse model. Kind of data set: Serum ALT in the Con A mouse model of liver damage. As to conditions: for Serum ALT / Serum ALT, Mean: Ex 5 Exp 1; for Serum ALT: one mouse; for Serum ALT, Mean: after 4th injection. In kind it is in vivo. The method, then:
A study was carried out in a mouse model of concanavilin A (Con A) production of liver cirrhosis. There were four experimental groups of several mice each. […] The Con A was injected intravenously once weekly into mice (0.3 mg/mouse/week), and produced a hepatitis, which is manifested by an increasing level of alanine transaminase (ALT) enzymes in the blood. The TM was given once daily by […] in a dose of 0.7 mg/mouse/day beginning 7 days prior to ConA treatment. During days 9 to 11 after Con A, the TM-treated mice received 1.2 mg of TM daily, to ensure adequate lowering of copper levels, and then received 0.7 mg daily for the duration of the study. A blood sample was obtained 28 days after ConA treatment, and the mice were sacrificed on the same day. Serum alanine transaminase (ALT) was measured in Sigma-Frankel (SF) units, where one unit is the formation of 0.000482 umoles of glutamate/minute at pH 7.5 and 25 ° C.
This example describes additional TM treatment experiments in the model Concanavalin (Con A) mouse model of liver damage. As described previously, in the Con A mouse model, intravenously administered Con A produces an inflammatory reaction and cell damage in the animal's liver that is marked by the release hepatic transaminase enzymes, such as […] (ALT), into the blood. Several different experiments are reported in this example
Twenty-four hours after each of the first three injections, one mouse from each group was bled, and serum ALT measured. In this experiment, TM was started in the TM treated mice before the first Con A injection. After the fourth injection of Con A, all the mice were bled for ALT and Cp measurements and the experiment terminated. The Cp levels in TM treated mice were 25-50% of non-TM treated animals.
In a second experiment, Con A was given in weekly injections for four weeks, prior to any treatment with TM. The objective was to see if TM treatment would be useful after considerable organ damage had been allowed to occur. Then, one group of Con A treated animals were initiated on TM therapy.

A further data set relates to TNFα. The experiment in a line: Lung TNFα mRNA by real time RT-PCR, bleomycin model. In kind it is in vivo, mouse. As to conditions: Ex 2 Exp 1; bleomycin/TM; day 7. The method, then:
Cytokine assays. Expression of TNFα and TGFβ was determined in lung tissues from the various experiments. TNFα mRNA was measured in total RNA isolated from lung tissue homogenates. Primer Express 2.0 software (Applied Biosystems, Foster City, Calif.) was used to design Taqman primers and MGB probes (6-FAM conjugated) for TNFα, which were then purchased from Applied Biosystems (PE/ABI, Foster City, Calif.). Primers and probes for GAPDH were purchased from PE/ABI. GAPDH mRNA was used as internal control to normalize the amount of input RNA. One-step real time RT-PCR was undertaken with Taqman One Step RT-PCR Master Mix (PE/ABI) using a GeneAmp 5700 Sequence Detection System (PE/ABI). Results were expressed as the threshold cycle (CT) at which an increase of reporter fluorescence (ΔRn) can first be detected. The levels of TNFα mRNA were normalized to the internal control GAPDH signals and expressed as 2^−ΔΔCT.

For data set [1] the following is noted: sheep; intravenous 99Mo labeled TM; cited from earlier work.
In a further data set the test system is cancer patients. Kind of data set: TM therapy in cancer patients. The format is in vivo, human. To be noted: 180 mg/day induction dose. Here is the method: TM has also shown positive effects in spontaneous canine cancers. A clinical phase ½ study of a variety of metastatic and advanced cancers has shown positive results, with an average of 11 months freedom from progression in evaluable patients, and long term stabilization in three patients (G J Brewer et al., Clin. Cancer Res., 6:1-10 [2000]). A number of phase 2 studies of specific cancers are under way.
The current cancer therapy induction dose for TM is 40 mg 3×daily with meals and 60 mg at bedtime separated from food (180 mg/day). At this dose, it takes 15-25 days to induce cancer patients into the Cp target range. This same induction dose is used for IPF patients. All patients remain on their induction doses until they reach target Cp levels, then are switched to maintenance therapy.

Another data set deals with rodent cancer models. To be noted: five different rodent cancer models; cited from earlier work.
Data set [2] deals with bleomycin mouse model of pulmonary fibrosis. The experiment in a line: Microscopic evaluation of the lungs (H&E, Masson-trichrome). In kind it is in vivo. An excerpt:
Microscopic evaluation of the lungs. For morphological evaluation of fibrosis, lungs were inflated with formalin at the time of sacrifice, and after overnight fixation were embedded in paraffin and sections prepared for H&E staining as well as for Masson-trichrome staining for evaluation of collagen deposition as previously described (M Gharaee-Kermani et al., J. Leukoc. Biol., 64:657-666 [1998]).

For data set [3], the system named is vascular endothelial growth factor (VEGF). Kind of data set: Retinopathy of prematurity in newborn mice. In kind it is in vivo, mouse. To be noted: hyperoxia then room air. The method, then: The present invention also contemplates the antiangiogenic therapeutic effects of TM in diseases of neovascularization besides cancer (e.g., animal models of retinopathy). In retinopathy of prematurity, newborn mice exposed to hyperoxia for five days develop a marked retinopathy after four days exposure to room air, with a peak of a major angiogenic stimulus, vascular endothelial growth factor (VEGF), at 24 hours.

SMILES strings stand for the structures.

For `[SH-].[SH-].[S]=[Mo]=[S]` [TM, tetrathiomolybdate], the “ConA induced increase of serum alanine transaminase (ALT)” value with Con A mouse model (Ex 4, TM 0.7 mg/mouse/day from 7 days before ConA, 28 days) is “almost completely inhibits”. Besides, the “Serum ALT” value came out at 52 Sigma-Frankel units in the data set with Con A mouse model (Con A + TM, 24 h after 1st Con A injection); 50 Sigma-Frankel units in the data set on Con A mouse model (Con A + TM, after 2nd injection); 63 Sigma-Frankel units in the data set with Con A mouse model (Con A + TM, after 3rd injection); 85 Sigma-Frankel units in the data set on Con A mouse model (TM only control, 24 h after 1st injection); 39 Sigma-Frankel units with Con A mouse model (TM only control, after 2nd injection); 49 Sigma-Frankel units in the data set on Con A mouse model (TM only control, after 3rd injection). Besides, the “Serum ALT, Mean” value is listed as 74^2,3 Sigma-Frankel units in the data set on Con A mouse model (Con A + TM, n 4) and 38 Sigma-Frankel units in the data set with Con A mouse model (TM only control, n 3). In addition, in the data set on Con A mouse model (Ex 5 Exp 2, TM started after four weeks of weekly Con A, Con A continued), the ALT values entry is on record as “returned to normal”. Besides, the “lung TNFα mRNA levels, bleomycin-induced increase” value with TNFα is “almost completely, and significantly, inhibited this increase”. The excreted in feces in data set [1] was 5%. The excreted in urine result in data set [1] is listed as “over 90%”. Further, the “half-time of slow disappearance from plasma” value in data set [1] is given as “about 40 h”. Also, the “time to induce patients into the Cp target range” value in the data set on cancer patients lay in the range of 15 to 25 days. Further, the “inhibition of tumor growth” value in the data set with rodent cancer models was “dramatic effects on inhibition of tumor growth”. In addition, in data set [2] (Ex 1 Exp 1, TM treated group vs bleomycin only), the “collagen deposition (Masson-trichrome)” value is reported as “much less collagen deposition”. In addition, the “lung histopathology (H&E): patches of fibrosis and inflammatory cells” value in data set [2] (Ex 1 Exp 1, TM-treated bleomycin animals vs bleomycin alone) was “substantially smaller with lesser degrees of cellular infiltration”. Besides, the “histopathological evaluation of fibrotic lesions” value in data set [2] (Ex 1 Exp 2, increasing TM dose) is “diminution of fibrotic lesion size with increasing dose of TM”. The VEGF peak result in data set [3] is on record as “strong inhibition”. In data set [3], the retinal neovascularization entry is on record as “dramatic reduction”.
